Results reported in US20100017900A1, “Prostate Epithelial Androgen Receptor Suppresses Prostate Growth and Tumor Invasion” (University of Rochester, priority 2006, published 2010).
“Also recorded” adds a separate entry of the source.

Experiments:
[1] = test system: PC3-AR9 cells; assay: Boyden chamber Matrigel invasion assay of PC3-AR9 cells; format: cell-based, human; conditions: Matrigel coated Boyden chambers
Experimental: The invasion assays used Boyden chambers (Becton Dickinson) with […] inserts and 8 μm pores. Matrigel Matrix ([…] surface area) was placed in medium (1:5 dilution) on the inner layer of the invasion chamber and incubated at 37° C. for 30 min before adding the cells.

[2] = test system: MMP-9; assay: MMP-9 enzyme (gelatinase) / zymography assay in PC3-AR9 cells; format: cell-based, human; conditions: for gelatinase activity of MMP-9: PC3-AR9 cells

CC(C)(O)C(=O)Nc1ccc([N+](=O)[O-])c(C(F)(F)F)c1 [HF]
invasion of PC3-AR9 ([1]; addition of HF to DHT): increased | gelatinase activity of MMP-9 ([2]; 1 μM HF added to 1 nM DHT): restore

C[C@]12CCC(=O)C[C@@H]1CC[C@@H]1[C@@H]2CC[C@]2(C)[C@@H](O)CC[C@@H]12 [DHT, dihydrotestosterone]
invasion of PC3-AR9 ([1]; in the presence of DHT, compared to PC3-v): decreased | gelatinase activity of MMP-9 ([2]; 1 nM DHT): suppress

CCCCCCCCCCCCCC(=O)O[C@@H]1[C@@H](C)[C@@]2(O)[C@@H](C=C(CO)C[C@]3(O)C(=O)C(C)=C[C@@H]23)[C@@H]2C(C)(C)[C@]12OC(C)=O [TPA]
activity of MMP-9 (zymography) ([2]; 10 nM TPA): increased; also recorded: enhanced
